Data from patent US20050181376A1, “Antisense modulation of microsomal triglyceride transfer protein expression” (ISIS Pharmaceuticals, Inc., priority 2001, published 2005).
Read-outs that look alike come from different tables or passages of the source. Strand notation (5' to 3'): a small letter for the sugar, then the base; units joined by * are phosphorothioate-linked, units joined directly phosphodiester-linked; [ ] holds rarer units or linkages, { } end groups; capitals alone tell only the bases. e = 2'-O-(2-methoxyethyl) (MOE); [5mC] = 5-methylcytosine; d = 2'-deoxy (DNA)

Columns and labels:
[1] = test system: human microsomal triglyceride transfer protein mRNA; note: test concentration or dose not given here
[2] = test system: human microsomal triglyceride transfer protein mRNA; assay: Antisense inhibition of human microsomal triglyceride transfer protein mRNA levels, quantitative real-time PCR; conditions: averages from two experiments; note: test concentration or dose not given here

Row | Substance | % INHIB (inhibition of human microsomal triglyceride transfer protein mRNA levels) [1] | % INHIB (inhibition of human microsomal triglyceride transfer protein mRNA levels) [2]
1 | GATGATTCAAAATGACGCTG (chemistry not given here) [ISIS 144444] | at least 30% | –
2 | 144442 (e[5mC]*eG*e[5mC]*eT*eG*dT*dG*d[5mC]*dT*d[5mC]*dT*d[5mC]*dA*dG*dA*eG*eA*eG*e[5mC]*eA; antisense) [compound 144442] | – | 57%
3 | GAGCTTCATATACATTGATC (antisense eG*eA*eG*e[5mC]*eT*dT*d[5mC]*dA*dT*dA*dT*dA*d[5mC]*dA*dT*eT*eG*eA*eT*e[5mC]) [ISIS 144447] | – | at least 30%
4 | GCTTCATCCTTGTCCATCTG (antisense eG*e[5mC]*eT*eT*e[5mC]*dA*dT*d[5mC]*d[5mC]*dT*dT*dG*dT*d[5mC]*d[5mC]*eA*eT*e[5mC]*eT*eG) [ISIS 144438] | – | at least 30%
5 | 144421 (eA*eT*eG*eG*e[5mC]*dT*dT*d[5mC]*dT*dA*dA*dT*dG*dA*dG*eT*e[5mC]*eT*eG*eA; antisense) [compound 144421] | – | 13%
6 | AATATCACAGGTCAGTTTCA (antisense eA*eA*eT*eA*eT*d[5mC]*dA*d[5mC]*dA*dG*dG*dT*d[5mC]*dA*dG*eT*eT*eT*e[5mC]*eA) [ISIS 144440] | – | at least 30%
7 | AGTGTCCCAGTGATGATCAT (antisense eA*eG*eT*eG*eT*d[5mC]*d[5mC]*d[5mC]*dA*dG*dT*dG*dA*dT*dG*eA*eT*e[5mC]*eA*eT) [ISIS 144423] | – | at least 30%
8 | 144412 (eG*e[5mC]*eG*eG*eT*dA*dG*d[5mC]*d[5mC]*d[5mC]*dA*d[5mC]*dG*d[5mC]*dT*eG*eT*e[5mC]*eT*eT; antisense) [compound 144412] | – | 34%
9 | 144436 (eG*eA*eG*eG*eA*dG*dT*d[5mC]*d[5mC]*dA*d[5mC]*dT*dG*dT*dG*eA*eT*eG*eT*e[5mC]; antisense) [compound 144436] | – | 29%
10 | CCAGTTGTGTGACCTTTAAC (antisense e[5mC]*e[5mC]*eA*eG*eT*dT*dG*dT*dG*dT*dG*dA*d[5mC]*d[5mC]*dT*eT*eT*eA*eA*e[5mC]) [ISIS 144410] | – | at least 30%
11 | TCAACTGCATCCAGTGCCCA (antisense eT*e[5mC]*eA*eA*e[5mC]*dT*dG*d[5mC]*dA*dT*d[5mC]*d[5mC]*dA*dG*dT*eG*e[5mC]*e[5mC]*e[5mC]*eA) [ISIS 144408] | – | at least 30%
12 | 144434 (e[5mC]*e[5mC]*e[5mC]*eT*eG*dG*dA*d[5mC]*d[5mC]*dT*d[5mC]*dT*dA*dT*dA*eT*eT*eG*eG*e[5mC]; antisense) [compound 144434] | – | 0%
13 | 144441 (e[5mC]*eA*eT*eG*e[5mC]*d[5mC]*dA*d[5mC]*dA*dT*dT*dG*dT*dG*dT*e[5mC]*e[5mC]*e[5mC]*eT*eT; antisense) [compound 144441] | – | 60%
14 | 144443 (eG*eT*eA*eG*e[5mC]*dA*dT*dA*d[5mC]*dT*dG*d[5mC]*dA*dT*dA*eT*eA*e[5mC]*e[5mC]*e[5mC]; antisense) [compound 144443] | – | 51%
15 | 144419 (eT*eG*eG*eT*eG*dG*dA*d[5mC]*d[5mC]*dG*d[5mC]*d[5mC]*dA*dG*dA*eG*e[5mC]*eT*e[5mC]*e[5mC]; antisense) [compound 144419] | – | 0%
16 | 144445 (eG*eA*eT*eT*eT*dG*dA*dG*dA*dG*dA*dG*dG*dT*dA*eT*eA*eA*eG*eT; antisense) [compound 144445] | – | 18%
17 | 144439 (e[5mC]*eG*e[5mC]*eT*eG*dG*dA*dA*dG*dT*dA*d[5mC]*dT*dA*dT*e[5mC]*e[5mC]*eG*eG*e[5mC]; antisense) [compound 144439] | – | 52%
18 | GCGGTAGCCCACGCTGTCTT (antisense eG*e[5mC]*eG*eG*eT*dA*dG*d[5mC]*d[5mC]*d[5mC]*dA*d[5mC]*dG*d[5mC]*dT*eG*eT*e[5mC]*eT*eT) [ISIS 144412] | – | at least 30%

Row | Substance | % INHIB (inhibition of human microsomal triglyceride transfer protein mRNA levels) [1] | % INHIB (inhibition of human microsomal triglyceride transfer protein mRNA levels) [2]
19 | 144447 (eG*eA*eG*e[5mC]*eT*dT*d[5mC]*dA*dT*dA*dT*dA*d[5mC]*dA*dT*eT*eG*eA*eT*e[5mC]; antisense) [compound 144447] | – | 70%
20 | 144418 (eA*e[5mC]*eA*eG*eT*dG*dG*d[5mC]*dT*d[5mC]*dT*dG*dG*dA*dA*eG*eA*e[5mC]*e[5mC]*eT; antisense) [compound 144418] | – | 0%
21 | TCATATTGACCAGCAATCCT (antisense eT*e[5mC]*eA*eT*eA*dT*dT*dG*dA*d[5mC]*d[5mC]*dA*dG*d[5mC]*dA*eA*eT*e[5mC]*e[5mC]*eT) [ISIS 144409] | – | at least 30%
22 | CCTGGAGGATAATGCTGCTG (antisense e[5mC]*e[5mC]*eT*eG*eG*dA*dG*dG*dA*dT*dA*dA*dT*dG*d[5mC]*eT*eG*e[5mC]*eT*eG) [ISIS 144422] | – | at least 30%
23 | 144449 (eA*eT*eG*eT*eG*d[5mC]*d[5mC]*dT*dT*d[5mC]*dT*dA*d[5mC]*d[5mC]*dT*eT*eA*eA*eG*eG) [compound 144449] | – | 35%
24 | CAGTGCCCAGCTAGGAGTCA (antisense e[5mC]*eA*eG*eT*eG*d[5mC]*d[5mC]*d[5mC]*dA*dG*d[5mC]*dT*dA*dG*dG*eA*eG*eT*e[5mC]*eA) [ISIS 144407] | – | at least 30%
25 | GTACTGGTTTCCAGGCCAGC (antisense eG*eT*eA*e[5mC]*eT*dG*dG*dT*dT*dT*d[5mC]*d[5mC]*dA*dG*dG*e[5mC]*e[5mC]*eA*eG*e[5mC]) [ISIS 144437] | – | at least 30%
26 | 144431 (e[5mC]*eG*eA*eG*eT*dA*dG*dA*dG*dA*dA*dT*dG*dT*d[5mC]*eT*eA*eG*eG*e[5mC]; antisense) [compound 144431] | – | 26%
27 | 144416 (eA*eG*eG*eT*eG*dG*dT*dG*dA*d[5mC]*dA*dG*dA*dT*dG*eT*eA*eG*e[5mC]*eT; antisense) [compound 144416] | – | 27%
28 | 144411 (eA*e[5mC]*eG*eT*eG*dA*dG*d[5mC]*dT*dT*dG*dT*dA*d[5mC]*dA*eG*e[5mC]*e[5mC]*eG*eG; antisense) [compound 144411] | – | 28%
29 | GATTCCTCCATAGTAAGGCC (antisense eG*eA*eT*eT*e[5mC]*d[5mC]*dT*d[5mC]*d[5mC]*dA*dT*dA*dG*dT*dA*eA*eG*eG*e[5mC]*e[5mC]) [ISIS 144413] | – | at least 30%
30 | 144425 (e[5mC]*e[5mC]*e[5mC]*eT*eT*d[5mC]*dT*d[5mC]*d[5mC]*dT*dG*d[5mC]*dT*dT*d[5mC]*eT*eG*e[5mC]*eA*eT; antisense) [compound 144425] | – | 22%
31 | 144423 (eA*eG*eT*eG*eT*d[5mC]*d[5mC]*d[5mC]*dA*dG*dT*dG*dA*dT*dG*eA*eT*e[5mC]*eA*eT; antisense) [compound 144423] | – | 41%
32 | CGCTGGAAGTACTATCCGGC (antisense e[5mC]*eG*e[5mC]*eT*eG*dG*dA*dA*dG*dT*dA*d[5mC]*dT*dA*dT*e[5mC]*e[5mC]*eG*eG*e[5mC]) [ISIS 144439] | – | at least 30%
33 | CATGCCACATTGTGTCCCTT (antisense e[5mC]*eA*eT*eG*e[5mC]*d[5mC]*dA*d[5mC]*dA*dT*dT*dG*dT*dG*dT*e[5mC]*e[5mC]*e[5mC]*eT*eT) [ISIS 144441] | – | at least 30%
34 | 144426 (eG*eA*eG*e[5mC]*eA*dG*dT*dG*dG*dT*dA*dG*d[5mC]*d[5mC]*dA*eG*eG*eT*eG*eG; antisense) [compound 144426] | – | 22%
35 | CGCTGTGCTCTCAGAGAGCA (antisense e[5mC]*eG*e[5mC]*eT*eG*dT*dG*d[5mC]*dT*d[5mC]*dT*d[5mC]*dA*dG*dA*eG*eA*eG*e[5mC]*eA) [ISIS 144442] | – | at least 30%
